Assay results published in patent US20220235064A1 (WELLMARKER BIO CO., LTD., priority 2019, published 2022).
Structures can show the parent of a compound that is named as a salt.

What was measured:
[1] = test system: cancer cell line KM12C, in which RON is activated; experiment: Cell growth inhibitory ability in RON-activated cancer cell line (MTS); type: cell-based; settings: Homo sapiens, 48 hours, absorbance 490 nm
How it was run: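 KM12C cells (RON-activated, MEM with FBS) exposed to compound […] for 48 h. MTS added 24 h after treatment ended, incubated 4 h at 37° C, absorbance read at 490 nm. IC50 derived from absorbance.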

[2] = test system: cancer cell line KM12C, in which RON is activated; experiment: Cell-killing efficacy in RON-activated cancer cell line (trypan blue); type: cell-based; settings: Homo sapiens, 48 hours, trypan blue, n=2, read-out: Cell death (%) Cancer cell line KM12C
How it was run: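 KM12C cells seeded 1×10^5 per 60 mm^2 dish in MEM + 10% FBS, then exposed 24 h later to compound at 1 μM or 5 μM for 48 h.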

RON tyrosine kinase = molecular target: T1, RON tyrosine kinase (Homo sapiens, UniProt Q04912); experiment: Enzyme inhibitory activity against RON tyrosine kinase (TR-FRET); type: biochemical; settings: RON (Carna Bioscience)
T1 construct: purchased Carna Bioscience
How it was run: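 Recombinant RON was preincubated with compound for 15 min at RT in 50 mM HEPES pH 7.5, 10 mM MgCl2, 1 mM EGTA, 2 mM DTT, 0.01% Tween-20. Enzyme (0.4 nM), ATP (60 μM) and tyrosine peptide (400 nM) were prepared at 2×, 4× and 4× final. After 60 min at RT, EDTA/Eu-anti-phosphotyrosine stop; IC50 from 665 nm TR-FRET emission.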

[3] = test system: cancer cell line HT29, in which mutated RON (Δ160) is expressed; experiment: Cell-killing efficacy in RON-mutated cancer cell line HT29 (trypan blue); type: cell-based; settings: Homo sapiens, HT-29, 48 hours, trypan blue, n=2, read-out: Cell death (%) Cancer cell line HT29
Description: (§1) Experimental Example 4: Measurement of Cell-Killing Efficacy of Example Compounds in RON-Mutated Cancer Cell Lines
(§2) Each of two colorectal cancer cell lines, that is, the cancer cell line HT29 (30038, KCLB, RPMI+10% FBS), in which mutated RON (Δ160) is expressed, and the cancer cell line SW620 (CCL-227, ATCC, RPMI+10% FBS), in which mutated RON (Δ155) is expressed, was dispensed into each 60 mm^2 dish at 1×10^5 cells. After 24 hours, the dish was treated with each of the example compounds at a concentration of 1 μM or 5 μM while performing medium exchange, and then reaction was allowed to proceed for 48 hours. After 48 hours, centrifugation was performed for 4 minutes at 1,500 rpm to collect cells and cell fluid. Thereafter, living cells and dead cells were quantified (n=2) using a trypan blue solution (15250-061, Gibco), and statistical analysis was performed using Excel-T-test. Here, as a negative control, only a solvent (0.10% DMSO) was used; and as a positive control, N-(4-(2-amino-3-chloropyridin-4-yloxy)-3-fluorophenyl)-4-ethoxy-1-(4-fluorophenyl)-2-oxo-1,2-dihydropyridine-3-carboxamide, which is the compound of Example 1 in WO 2008/058229 A1, was used.

[4] = test system: cancer cell line SW620, in which mutated RON (Δ155) is expressed; experiment: Cell-killing efficacy in RON-mutated cancer cell line SW620 (trypan blue); type: cell-based; settings: Homo sapiens, SW-620, 48 hours, trypan blue, n=2, read-out: Cell death (%) Cancer cell line SW620
Description: as §1, §2

T1 sequence (Q04912 25-1400): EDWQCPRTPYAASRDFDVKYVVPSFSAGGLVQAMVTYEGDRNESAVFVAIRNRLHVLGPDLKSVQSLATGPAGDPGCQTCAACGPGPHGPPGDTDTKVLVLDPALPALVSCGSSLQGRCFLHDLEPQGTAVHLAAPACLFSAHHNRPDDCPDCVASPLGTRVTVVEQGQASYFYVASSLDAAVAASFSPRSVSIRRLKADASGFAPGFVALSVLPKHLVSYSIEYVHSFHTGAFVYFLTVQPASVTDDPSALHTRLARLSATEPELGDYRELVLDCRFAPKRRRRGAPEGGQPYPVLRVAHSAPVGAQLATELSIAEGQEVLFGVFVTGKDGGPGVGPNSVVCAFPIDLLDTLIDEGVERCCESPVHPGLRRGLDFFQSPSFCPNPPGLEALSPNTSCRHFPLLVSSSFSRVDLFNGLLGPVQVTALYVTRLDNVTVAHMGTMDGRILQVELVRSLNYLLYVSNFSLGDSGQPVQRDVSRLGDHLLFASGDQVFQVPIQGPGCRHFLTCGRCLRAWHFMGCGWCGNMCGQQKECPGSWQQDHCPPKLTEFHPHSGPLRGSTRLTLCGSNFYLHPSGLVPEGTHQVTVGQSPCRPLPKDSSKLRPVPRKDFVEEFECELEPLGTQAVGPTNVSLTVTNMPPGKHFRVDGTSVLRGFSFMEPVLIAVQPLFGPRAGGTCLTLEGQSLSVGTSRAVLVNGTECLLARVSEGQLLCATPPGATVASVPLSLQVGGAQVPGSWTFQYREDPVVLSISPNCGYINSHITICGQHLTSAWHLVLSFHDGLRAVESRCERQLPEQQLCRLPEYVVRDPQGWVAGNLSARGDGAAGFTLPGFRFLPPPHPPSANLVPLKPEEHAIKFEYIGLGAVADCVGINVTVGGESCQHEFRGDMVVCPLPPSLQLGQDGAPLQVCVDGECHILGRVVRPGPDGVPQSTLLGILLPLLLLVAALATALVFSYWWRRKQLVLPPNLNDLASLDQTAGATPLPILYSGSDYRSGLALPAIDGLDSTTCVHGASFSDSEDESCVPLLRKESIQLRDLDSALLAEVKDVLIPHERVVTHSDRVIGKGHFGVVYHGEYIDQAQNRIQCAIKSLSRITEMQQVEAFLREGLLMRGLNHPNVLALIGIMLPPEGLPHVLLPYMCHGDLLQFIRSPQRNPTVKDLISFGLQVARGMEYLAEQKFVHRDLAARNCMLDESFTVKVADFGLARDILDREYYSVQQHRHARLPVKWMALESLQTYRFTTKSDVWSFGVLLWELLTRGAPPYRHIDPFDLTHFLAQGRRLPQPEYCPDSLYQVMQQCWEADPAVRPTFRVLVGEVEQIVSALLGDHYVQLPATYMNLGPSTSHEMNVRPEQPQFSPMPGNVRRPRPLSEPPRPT

SMILES | IC50 [1] [nM] | IC50 (RON tyrosine kinase) [nM] | cytotoxicity at 1 µM [2] [%] | cytotoxicity at 5 µM [2] [%] | cytotoxicity at 1 µM [3] [%] | cytotoxicity at 5 µM [3] [%] | cytotoxicity at 1 µM [4] [%] | cytotoxicity at 5 µM [4] [%]
COCCNCc1ccc(-c2cc3nccc(Oc4ccc(NC(=O)c5c6c(cn(-c7ccccc7)c5=O)CCO6)cc4F)c3s2)nc1 [Example 2, N-(3-Fluoro-4-((2-(5-(((2-methoxyethyl)amino)methyl)pyridin-2-yl)thieno[3,2-b]pyridin-7-yl)oxy)phenyl)-6-oxo-5-phenyl-2,3,5,6-tetrahydrofuro[3,2-c]pyridine-7-carboxamide hydrochloride] | 67 | 1.25 | 38.4 | 93.4 | 15.4 | 80.5 | – | –
COC1CCN(Cc2ccc(-c3cc4nccc(Oc5ccc(NC(=O)c6c7c(cn(-c8ccc(F)cc8)c6=O)CCO7)cc5F)c4s3)nc2)CC1 [Example 31, N-(3-Fluoro-4-((2-(5-((4-methoxypiperidin-1-yl)methyl)pyridin-2-yl)thieno[3,2-b]pyridin-7-yl)oxy)phenyl)-5-(4-fluorophenyl)-6-oxo-2,3,5,6-tetrahydrofuro[3,2-c]pyridine-7-carboxamide] | 2 | – | 40.9 | 52 | – | – | 15.4 | 47
COCCNCc1ccc(-c2cc3nccc(Oc4ccc(NC(=O)c5c6c(cn(-c7ccc(F)cc7)c5=O)CCO6)cc4F)c3s2)nc1 [Example 1, N-(3-Fluoro-4-((2-(5-(((2-methoxyethyl)amino)methyl)pyridin-2-yl)thieno[3,2-b]pyridin-7-yl)oxy)phenyl)-5-(4-fluorophenyl)-6-oxo-2,3,5,6-tetrahydrofuro[3,2-c]pyridine-7-carboxamide hydrochloride] | 2 | 0.82 | 10.3 | 68.6 | 9.35 | 38.2 | – | –
Cn1ncc2cc(Oc3ccc(NC(=O)c4c5c(cn(-c6ccc(F)cc6)c4=O)CCO5)cc3F)c(-c3cn[nH]c3)cc21 [Example 64] | – | 14.2 | 13.1 | 97.1 | 16 | 18.8 | – | –
COc1cc2c(Oc3ccc(NC(=O)c4c5c(cn(-c6ccc(F)cc6)c4=O)CCO5)cc3F)ccnc2cc1OCCCN1CCC(F)(F)CC1 [Example 105, N-(4-((7-(3-(4,4-Difluoropiperidin-1-yl)propoxy)-6-methoxyquinolin-4-yl)oxy)-3-fluorophenyl)-5-(4-fluorophenyl)-6-oxo-2,3,5,6-tetrahydrofuro[3,2-c]pyridine-7-carboxamide] | 4 | – | 33.8 | 45.2 | – | – | 60.4 | 84.1
CN(C)C1CN(Cc2ccc(-c3cc4nccc(Oc5ccc(NC(=O)c6c7c(cn(-c8ccc(F)cc8)c6=O)CCO7)cc5F)c4s3)nc2)C1 [Example 20, N-(4-((2-(5-((3-(Dimethylamino)azetidin-1-yl)methyl)pyridin-2-yl)thieno[3,2-b]pyridine-7-yl)oxy)-3-fluorophenyl)-5-(4-fluorophenyl)-6-oxo-2,3,5,6-tetrahydrofuro[3,2-c]pyridine-7-carboxamide] | 1 | – | 8.12 | 35.5 | – | – | 17.4 | 91.2
COc1cc2nccc(Oc3ccc(NC(=O)c4c5c(cn(-c6ccc(F)cc6)c4=O)CCO5)cc3F)c2cc1OCCCN1CCOCC1 [Example 176, N-(3-Fluoro-4-((7-methoxy-6-(3-morpholinopropoxy)quinolin-4-yl)oxy)phenyl)-5-(4-fluorophenyl)-6-oxo-2,3,5,6-tetrahydrofuro[3,2-c]pyridine-7-carboxamide] | 2 | 0.1 | 4.1 | 20.2 | – | – | – | –

Now from value to compound, other results behind:

IC50 [1] [nM] | IC50 (RON tyrosine kinase) [nM] | SMILES | cytotoxicity at 1 µM [2] [%] | cytotoxicity at 5 µM [2] [%] | cytotoxicity at 1 µM [3] [%] | cytotoxicity at 5 µM [3] [%] | cytotoxicity at 1 µM [4] [%] | cytotoxicity at 5 µM [4] [%]
3 | 2.5 | COc1cc2c(Oc3ccc(NC(=O)c4c5c(cn(-c6ccc(F)cc6)c4=O)CCO5)cc3F)ccnc2cc1NC(=O)CCN1CCOCC1 [Example 183, N-(3-Fluoro-4-((6-methoxy-7-(3-morpholinopropanamido)quinolin-4-yl)oxy)phenyl)-5-(4-fluorophenyl)-6-oxo-2,3,5,6-tetrahydrofuro[3,2-c]pyridine-7-carboxamide] | 27.3 | 40.3 | 7.8 | 87.5 | – | –
– | 3.21 | COc1cc2nccc(Oc3ccc(NC(=O)c4c5c(cn(-c6ccc(F)cc6)c4=O)CCO5)cc3F)c2cc1OC [Example 40, N-(4-((6,7-Dimethoxyquinolin-4-yl)oxy)-3-fluorophenyl)-5-(4-fluorophenyl)-6-oxo-2,3,5,6-tetrahydrofuro[3,2-c]pyridine-7-carboxamide] | 29.8 | 37.3 | 9.17 | 22.9 | 8.5 | 9.2
3 | – | COc1cc2c(Oc3ccc(NC(=O)c4c5c(cn(-c6ccc(F)cc6)c4=O)CCO5)cc3F)ccnc2cc1OCCCN1CC(F)(F)C1 [Example 87, N-(4-((7-(3-(3,3-Difluoroazetidin-1-yl)propoxy)-6-methoxyquinolin-4-yl)oxy)-3-fluorophenyl)-5-(4-fluorophenyl)-6-oxo-2,3,5,6-tetrahydrofuro[3,2-c]pyridine-7-carboxamide] | 40.7 | 60.1 | – | – | 77.1 | 70.5
1 | – | COc1cc2c(Oc3ccc(NC(=O)c4c5c(cn(-c6ccc(F)cc6)c4=O)CCO5)cc3F)ccnc2cc1OCCN1CCS(=O)(=O)CC1 [Example 142, N-(4-((7-(2-(1,1-Dioxidothiomorpholino)ethoxy)-6-methoxyquinolin-4-yl)oxy)-3-fluorophenyl)-5-(4-fluorophenyl)-6-oxo-2,3,5,6-tetrahydrofuro[3,2-c]pyridine-7-carboxamide] | 34 | 40 | – | – | 74 | 67.6
8 | 3.35 | COc1cc2c(Oc3ccc(NC(=O)c4c5c(cn(-c6ccc(F)cc6)c4=O)CCO5)cc3F)ccnc2cc1NC(=O)CN1CCOCC1 [Example 182, N-(3-Fluoro-4-((6-methoxy-7-(2-morpholinoacetamido)quinolin-4-yl)oxy)phenyl)-5-(4-fluorophenyl)-6-oxo-2,3,5,6-tetrahydrofuro[3,2-c]pyridine-7-carboxamide] | 25.1 | 44.4 | 7.6 | 10.2 | – | –
1 | 0.85 | CNC(=O)c1cc2c(Oc3ccc(NC(=O)c4c5c(cn(-c6ccc(F)cc6)c4=O)CCO5)cc3F)ccnc2cc1OC [Example 48, N-(3-Fluoro-4-((7-methoxy-6-(methylcarbamoyl)quinolin-4-yl)oxy)phenyl)-5-(4-fluorophenyl)-6-oxo-2,3,5,6-tetrahydrofuro[3,2-c]pyridine-7-carboxamide] | 18.9 | 15.5 | – | – | – | –
